{"source": "paper PMC7714403", "about": "(JCI Insight, 2020)", "assay_in_all_cases": "KiNativ, MOLM13 live cells", "type_in_all_cases": "cell-based", "key": {"IRAK1": {"biological_target": "IRAK1 (Homo sapiens, UniProt P51617)", "settings": "MOLM-13; 100 nM, 2 hours; Lys2; read-out: Inhibition vs DMSO", "method": "(§1) Samples were analyzed by KiNativ in situ kinase profiling by ActivX Biosciences."}, "IKKb": {"biological_target": "T1, IKKb (Homo sapiens, UniProt O14920)", "T1 sequence (O14920 1-756)": "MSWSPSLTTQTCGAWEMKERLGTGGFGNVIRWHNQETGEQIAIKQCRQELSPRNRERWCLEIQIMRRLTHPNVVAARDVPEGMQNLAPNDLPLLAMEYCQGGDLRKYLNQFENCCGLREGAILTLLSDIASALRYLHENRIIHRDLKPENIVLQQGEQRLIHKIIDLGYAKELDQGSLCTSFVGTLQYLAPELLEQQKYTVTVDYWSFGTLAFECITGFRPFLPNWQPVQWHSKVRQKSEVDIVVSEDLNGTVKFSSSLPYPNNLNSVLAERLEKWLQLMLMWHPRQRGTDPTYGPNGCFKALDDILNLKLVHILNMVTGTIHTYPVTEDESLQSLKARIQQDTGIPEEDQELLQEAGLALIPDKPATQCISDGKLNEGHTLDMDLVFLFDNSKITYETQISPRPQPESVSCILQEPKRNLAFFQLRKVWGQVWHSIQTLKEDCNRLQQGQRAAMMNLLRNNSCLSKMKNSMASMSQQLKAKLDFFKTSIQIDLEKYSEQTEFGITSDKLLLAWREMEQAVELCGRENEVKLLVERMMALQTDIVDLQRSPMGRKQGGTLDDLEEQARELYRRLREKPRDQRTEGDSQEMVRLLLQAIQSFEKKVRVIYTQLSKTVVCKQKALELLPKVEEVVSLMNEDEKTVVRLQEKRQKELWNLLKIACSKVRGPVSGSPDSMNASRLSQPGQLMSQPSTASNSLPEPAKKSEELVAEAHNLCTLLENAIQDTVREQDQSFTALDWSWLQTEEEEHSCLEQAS", "settings": "MOLM-13, 2 h, 100 nM", "method": "as §1"}, "PKR": {"biological_target": "PKR (Homo sapiens, UniProt P19525)", "sequence (P19525 whole entry)": "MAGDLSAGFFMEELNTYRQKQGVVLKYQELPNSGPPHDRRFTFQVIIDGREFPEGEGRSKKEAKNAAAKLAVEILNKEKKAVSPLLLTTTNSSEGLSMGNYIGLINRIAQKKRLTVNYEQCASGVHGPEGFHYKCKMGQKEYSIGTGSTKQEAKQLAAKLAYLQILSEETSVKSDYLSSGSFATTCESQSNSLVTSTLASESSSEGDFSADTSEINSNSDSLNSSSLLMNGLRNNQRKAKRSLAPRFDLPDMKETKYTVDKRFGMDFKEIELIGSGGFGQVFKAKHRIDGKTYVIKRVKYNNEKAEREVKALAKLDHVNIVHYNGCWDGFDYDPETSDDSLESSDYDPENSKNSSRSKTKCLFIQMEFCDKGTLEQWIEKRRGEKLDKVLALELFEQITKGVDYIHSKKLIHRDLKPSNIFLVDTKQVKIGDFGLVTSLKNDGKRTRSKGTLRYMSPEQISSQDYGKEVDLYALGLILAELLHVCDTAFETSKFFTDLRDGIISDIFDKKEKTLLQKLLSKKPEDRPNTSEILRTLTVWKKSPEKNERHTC", "settings": "100 nM, 2 hours", "method": "as §1"}, "TYK2 domain2": {"biological_target": "T2, TYK2 domain2 (Homo sapiens, UniProt P29597)", "T2 construct": "TYK2 domain2", "settings": "100 nM, 2 hours; Activation Loop", "method": "as §1"}, "DGKH": {"biological_target": "DGKH (Homo sapiens, UniProt Q86XP1)", "settings": "MOLM-13; 100 nM, 2 hours; ATP; read-out: Inhibition vs DMSO", "method": "as §1"}, "SLK": {"biological_target": "SLK (Homo sapiens, UniProt Q9H2G2)", "settings": "MOLM-13; 100 nM, 2 hours; Lys2; read-out: Inhibition vs DMSO", "method": "as §1"}, "ULK3": {"biological_target": "ULK3 (Homo sapiens, UniProt Q6PHR2)", "sequence (Q6PHR2 whole entry)": "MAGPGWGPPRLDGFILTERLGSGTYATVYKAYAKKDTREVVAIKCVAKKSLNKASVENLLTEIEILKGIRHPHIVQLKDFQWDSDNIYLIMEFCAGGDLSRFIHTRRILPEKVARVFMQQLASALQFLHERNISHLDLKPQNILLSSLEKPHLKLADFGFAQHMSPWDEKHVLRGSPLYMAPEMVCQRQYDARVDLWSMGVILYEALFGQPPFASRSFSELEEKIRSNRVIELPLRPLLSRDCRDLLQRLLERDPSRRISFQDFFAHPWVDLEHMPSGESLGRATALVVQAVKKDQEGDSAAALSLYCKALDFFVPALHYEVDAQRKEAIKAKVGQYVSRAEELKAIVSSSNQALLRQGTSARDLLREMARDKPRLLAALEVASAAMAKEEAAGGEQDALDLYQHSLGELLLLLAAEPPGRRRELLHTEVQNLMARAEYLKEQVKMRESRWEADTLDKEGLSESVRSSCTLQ", "settings": "100 nM, 2 hours; Lys1", "method": "as §1"}, "FAM20B": {"biological_target": "FAM20B (Homo sapiens, UniProt O75063)", "sequence (O75063 whole entry)": "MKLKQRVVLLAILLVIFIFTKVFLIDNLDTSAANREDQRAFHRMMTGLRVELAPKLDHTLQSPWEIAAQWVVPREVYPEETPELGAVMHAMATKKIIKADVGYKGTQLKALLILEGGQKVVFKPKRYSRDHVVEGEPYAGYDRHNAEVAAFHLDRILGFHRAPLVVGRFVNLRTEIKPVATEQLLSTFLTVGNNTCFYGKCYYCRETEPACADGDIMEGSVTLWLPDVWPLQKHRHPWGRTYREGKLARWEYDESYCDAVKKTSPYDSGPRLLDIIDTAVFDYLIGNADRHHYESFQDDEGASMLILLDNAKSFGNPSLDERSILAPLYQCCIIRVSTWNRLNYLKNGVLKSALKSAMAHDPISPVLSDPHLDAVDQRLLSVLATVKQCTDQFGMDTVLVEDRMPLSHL", "settings": "MOLM-13; 100 nM, 2 hours; ATP; read-out: Inhibition vs DMSO", "method": "as §1"}, "JAK2 domain2": {"biological_target": "T3, JAK2 domain2 (Homo sapiens, UniProt O60674)", "T3 construct": "JAK2 domain2", "settings": "100 nM, 2 hours; Activation Loop", "method": "as §1"}, "FER": {"biological_target": "FER (Homo sapiens, UniProt P16591)", "sequence (P16591 whole entry)": "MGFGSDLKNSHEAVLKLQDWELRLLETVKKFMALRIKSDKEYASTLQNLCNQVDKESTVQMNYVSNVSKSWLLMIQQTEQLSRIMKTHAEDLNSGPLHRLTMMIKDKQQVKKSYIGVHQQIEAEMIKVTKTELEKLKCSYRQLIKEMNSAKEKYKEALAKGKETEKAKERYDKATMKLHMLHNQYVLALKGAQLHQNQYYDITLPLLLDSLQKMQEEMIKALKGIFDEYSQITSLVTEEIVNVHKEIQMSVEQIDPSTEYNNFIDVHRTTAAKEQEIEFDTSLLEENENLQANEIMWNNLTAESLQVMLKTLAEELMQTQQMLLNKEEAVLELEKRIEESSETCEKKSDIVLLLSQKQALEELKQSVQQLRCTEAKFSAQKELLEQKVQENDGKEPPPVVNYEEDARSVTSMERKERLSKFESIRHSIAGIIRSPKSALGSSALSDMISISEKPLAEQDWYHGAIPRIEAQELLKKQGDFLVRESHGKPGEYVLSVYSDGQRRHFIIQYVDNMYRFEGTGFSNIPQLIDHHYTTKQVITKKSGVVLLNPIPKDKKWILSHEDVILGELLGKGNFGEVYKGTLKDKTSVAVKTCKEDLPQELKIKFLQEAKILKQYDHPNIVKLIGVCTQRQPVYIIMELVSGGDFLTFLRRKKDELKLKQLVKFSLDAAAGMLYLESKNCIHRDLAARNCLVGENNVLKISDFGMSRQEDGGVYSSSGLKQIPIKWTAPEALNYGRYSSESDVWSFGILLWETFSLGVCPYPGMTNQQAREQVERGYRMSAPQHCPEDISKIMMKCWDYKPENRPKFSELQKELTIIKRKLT", "settings": "MOLM-13, 2 h, 100 nM", "method": "as §1"}, "Erk1": {"biological_target": "Erk1 (Homo sapiens, UniProt P27361)", "settings": "MOLM-13; 100 nM, 2 hours; Lys2; read-out: Inhibition vs DMSO", "method": "as §1"}, "MAP2K6": {"biological_target": "T4, MAP2K6 (Homo sapiens, UniProt P52564)", "T4 sequence (P52564 1-334)": "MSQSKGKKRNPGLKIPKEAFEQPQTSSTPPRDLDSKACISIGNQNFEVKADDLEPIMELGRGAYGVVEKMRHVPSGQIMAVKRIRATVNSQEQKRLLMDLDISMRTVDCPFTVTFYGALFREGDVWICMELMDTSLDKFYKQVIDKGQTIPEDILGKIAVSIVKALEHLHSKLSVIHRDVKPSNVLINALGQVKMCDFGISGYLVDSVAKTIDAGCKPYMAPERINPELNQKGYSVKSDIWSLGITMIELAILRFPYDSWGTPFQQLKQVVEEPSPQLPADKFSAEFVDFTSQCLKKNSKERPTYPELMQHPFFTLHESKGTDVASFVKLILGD", "settings": "MOLM-13, 2 h, 100 nM", "method": "as §1"}, "AKT1": {"biological_target": "AKT1 (Homo sapiens, UniProt P31749)", "settings": "MOLM-13; 100 nM, 2 hours; ATP Loop; read-out: Inhibition vs DMSO", "method": "as §1"}, "IKKe": {"biological_target": "IKKe (Homo sapiens, UniProt Q14164)", "settings": "MOLM-13; 100 nM, 2 hours; Lys1; read-out: Inhibition vs DMSO", "method": "as §1"}, "JAK1 domain2": {"biological_target": "T5, JAK1 domain2 (Homo sapiens, UniProt P23458)", "T5 construct": "JAK1 domain2", "T5 sequence (P23458 whole entry, the tested form may be a part)": "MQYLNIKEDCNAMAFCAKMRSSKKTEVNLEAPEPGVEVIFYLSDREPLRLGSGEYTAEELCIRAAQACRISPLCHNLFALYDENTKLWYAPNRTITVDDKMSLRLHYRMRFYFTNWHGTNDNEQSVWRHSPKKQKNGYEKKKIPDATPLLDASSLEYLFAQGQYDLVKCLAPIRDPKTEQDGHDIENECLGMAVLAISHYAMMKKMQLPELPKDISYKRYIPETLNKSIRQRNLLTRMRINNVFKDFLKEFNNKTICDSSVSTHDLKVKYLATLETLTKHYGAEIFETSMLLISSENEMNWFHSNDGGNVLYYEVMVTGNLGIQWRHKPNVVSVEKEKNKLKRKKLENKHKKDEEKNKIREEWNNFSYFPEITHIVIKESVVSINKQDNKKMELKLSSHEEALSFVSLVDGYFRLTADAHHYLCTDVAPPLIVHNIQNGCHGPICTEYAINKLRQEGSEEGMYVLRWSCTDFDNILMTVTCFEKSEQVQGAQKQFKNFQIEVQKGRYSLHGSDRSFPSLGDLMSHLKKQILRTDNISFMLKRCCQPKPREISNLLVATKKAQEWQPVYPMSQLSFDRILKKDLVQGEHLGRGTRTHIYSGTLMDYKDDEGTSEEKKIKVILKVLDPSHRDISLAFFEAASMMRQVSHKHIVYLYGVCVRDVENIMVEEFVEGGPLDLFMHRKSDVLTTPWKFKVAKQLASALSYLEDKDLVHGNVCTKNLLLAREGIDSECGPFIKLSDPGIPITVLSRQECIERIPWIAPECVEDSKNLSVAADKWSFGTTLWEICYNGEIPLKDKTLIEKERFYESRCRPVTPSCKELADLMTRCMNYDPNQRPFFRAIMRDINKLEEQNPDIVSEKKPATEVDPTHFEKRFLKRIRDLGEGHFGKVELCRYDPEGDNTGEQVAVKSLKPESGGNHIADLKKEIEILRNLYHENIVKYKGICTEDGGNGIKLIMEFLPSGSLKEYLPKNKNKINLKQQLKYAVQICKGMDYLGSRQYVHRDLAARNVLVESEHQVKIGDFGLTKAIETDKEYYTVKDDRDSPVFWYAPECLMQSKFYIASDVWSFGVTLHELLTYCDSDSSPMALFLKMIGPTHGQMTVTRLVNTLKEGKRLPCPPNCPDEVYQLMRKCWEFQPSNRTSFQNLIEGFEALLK", "settings": "100 nM, 2 hours", "method": "as §1"}, "PLK1": {"biological_target": "PLK1 (Homo sapiens, UniProt P53350)", "sequence (P53350 whole entry)": "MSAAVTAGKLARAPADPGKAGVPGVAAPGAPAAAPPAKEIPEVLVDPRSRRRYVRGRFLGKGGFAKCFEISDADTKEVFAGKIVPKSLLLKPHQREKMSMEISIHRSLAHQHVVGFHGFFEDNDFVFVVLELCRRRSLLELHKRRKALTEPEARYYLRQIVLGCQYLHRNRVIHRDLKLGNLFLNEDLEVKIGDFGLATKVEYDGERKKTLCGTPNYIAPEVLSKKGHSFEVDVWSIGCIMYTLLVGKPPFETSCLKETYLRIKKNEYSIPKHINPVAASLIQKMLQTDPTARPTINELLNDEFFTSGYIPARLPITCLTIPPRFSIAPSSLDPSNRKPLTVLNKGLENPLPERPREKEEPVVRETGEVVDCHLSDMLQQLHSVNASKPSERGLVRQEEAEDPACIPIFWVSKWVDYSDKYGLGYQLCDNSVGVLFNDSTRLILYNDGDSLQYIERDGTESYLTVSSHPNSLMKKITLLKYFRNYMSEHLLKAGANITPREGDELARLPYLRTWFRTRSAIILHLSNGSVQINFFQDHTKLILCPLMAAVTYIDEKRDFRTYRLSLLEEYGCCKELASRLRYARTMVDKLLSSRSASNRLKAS", "settings": "MOLM-13, 2 h, 100 nM", "method": "as §1"}, "PCTAIRE2": {"biological_target": "PCTAIRE2 (Homo sapiens, UniProt Q00537)", "settings": "MOLM-13; 100 nM, 2 hours; Lys2; read-out: Inhibition vs DMSO", "method": "as §1"}, "PYK2": {"biological_target": "PYK2 (Homo sapiens, UniProt Q14289)", "settings": "MOLM-13; 100 nM, 2 hours; Activation Loop; read-out: Inhibition vs DMSO", "method": "as §1"}, "LOK": {"biological_target": "LOK (Homo sapiens, UniProt O94804)", "sequence (O94804 whole entry)": "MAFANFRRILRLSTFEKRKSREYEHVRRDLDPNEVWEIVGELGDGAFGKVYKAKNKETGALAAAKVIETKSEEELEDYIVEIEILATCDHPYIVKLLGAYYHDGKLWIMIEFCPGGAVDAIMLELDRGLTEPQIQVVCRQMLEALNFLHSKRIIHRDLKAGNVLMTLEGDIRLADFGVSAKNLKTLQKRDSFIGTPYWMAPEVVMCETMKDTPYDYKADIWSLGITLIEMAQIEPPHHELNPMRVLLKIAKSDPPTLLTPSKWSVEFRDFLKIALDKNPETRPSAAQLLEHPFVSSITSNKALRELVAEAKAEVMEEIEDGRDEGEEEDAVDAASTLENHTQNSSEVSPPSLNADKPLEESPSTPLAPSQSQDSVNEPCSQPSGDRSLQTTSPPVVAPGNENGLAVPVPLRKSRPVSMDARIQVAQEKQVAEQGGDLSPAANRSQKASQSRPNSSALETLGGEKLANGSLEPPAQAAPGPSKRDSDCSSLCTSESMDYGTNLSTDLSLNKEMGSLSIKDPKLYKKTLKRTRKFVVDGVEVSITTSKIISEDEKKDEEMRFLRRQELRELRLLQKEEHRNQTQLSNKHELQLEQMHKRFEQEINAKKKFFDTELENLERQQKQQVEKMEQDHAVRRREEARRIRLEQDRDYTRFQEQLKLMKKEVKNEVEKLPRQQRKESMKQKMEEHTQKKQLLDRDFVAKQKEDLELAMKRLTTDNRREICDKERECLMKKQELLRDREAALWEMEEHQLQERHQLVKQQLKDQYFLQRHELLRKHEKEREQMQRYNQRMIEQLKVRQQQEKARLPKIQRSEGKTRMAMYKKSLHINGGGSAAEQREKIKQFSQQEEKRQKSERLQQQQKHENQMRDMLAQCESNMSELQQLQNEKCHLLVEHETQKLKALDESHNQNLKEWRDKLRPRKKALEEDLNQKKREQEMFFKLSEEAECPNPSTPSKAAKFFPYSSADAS", "settings": "100 nM, 2 hours", "method": "as §1"}, "MAP3K3": {"biological_target": "MAP3K3 (Homo sapiens, UniProt Q99759)", "settings": "MOLM-13; 100 nM, 2 hours; Lys1; read-out: Inhibition vs DMSO", "method": "as §1"}, "PIK3CB": {"biological_target": "PIK3CB (Homo sapiens, UniProt P42338)", "settings": "MOLM-13; 100 nM, 2 hours; ATP; read-out: Inhibition vs DMSO", "method": "as §1"}, "[1]": {"settings": "Lys1, read-out: Inhibition vs DMSO"}, "[2]": {"settings": "Lys2, read-out: Inhibition vs DMSO"}}, "note": "Read-outs that look alike come from different tables or passages of the source."}
{"smiles": "CN1CCN(Cc2ccc(Nc3ncc(Cl)c(Nc4ccccc4S(=O)(=O)N(C)C)n3)cc2)CC1", "note": "[TP-0903]", "values": [{"measurement": "inhibition at 0.1 µM", "setting": "IRAK1", "result": 43.3, "unit": "%"}, {"measurement": "inhibition at 0.1 µM", "setting": "IKKb; [1]", "result": -4.8, "unit": "%"}, {"measurement": "inhibition at 0.1 µM", "setting": "IKKb; [2]", "result": -10.5, "unit": "%"}, {"measurement": "Inhibition vs DMSO", "setting": "PKR; Activation Loop", "result": -7.5, "unit": "%"}, {"measurement": "Inhibition vs DMSO", "setting": "PKR; Lys1", "result": -21.9, "unit": "%"}, {"measurement": "Inhibition vs DMSO", "setting": "PKR; Lys2", "result": -21.6, "unit": "%"}, {"measurement": "Inhibition vs DMSO", "setting": "TYK2 domain2", "result": -0.9, "unit": "%"}, {"measurement": "inhibition at 0.1 µM", "setting": "DGKH", "result": -1.3, "unit": "%"}, {"measurement": "inhibition at 0.1 µM", "setting": "SLK", "result": 72.2, "unit": "%"}, {"measurement": "Inhibition vs DMSO", "setting": "ULK3", "result": 28.7, "unit": "%"}, {"measurement": "inhibition at 0.1 µM", "setting": "FAM20B", "result": -5, "unit": "%"}, {"measurement": "Inhibition vs DMSO", "setting": "JAK2 domain2", "result": -68.6, "unit": "%"}, {"measurement": "inhibition at 0.1 µM", "setting": "FER; Activation Loop, read-out: Inhibition vs DMSO", "result": 43.4, "unit": "%"}, {"measurement": "inhibition at 0.1 µM", "setting": "FER; [1]", "result": 19.2, "unit": "%"}, {"measurement": "inhibition at 0.1 µM", "setting": "Erk1", "result": -2.8, "unit": "%"}, {"measurement": "inhibition at 0.1 µM", "setting": "MAP2K6; [1]", "result": -2.4, "unit": "%"}, {"measurement": "inhibition at 0.1 µM", "setting": "MAP2K6; [2]", "result": -11.9, "unit": "%"}, {"measurement": "inhibition at 0.1 µM", "setting": "AKT1", "result": -54.3, "unit": "%"}, {"measurement": "inhibition at 0.1 µM", "setting": "IKKe", "result": 19.3, "unit": "%"}, {"measurement": "Inhibition vs DMSO", "setting": "JAK1 domain2; Activation Loop", "result": -23.7, "unit": "%"}, {"measurement": "Inhibition vs DMSO", "setting": "JAK1 domain2; Lys1", "result": -597.8, "unit": "%"}, {"measurement": "inhibition at 0.1 µM", "setting": "PLK1; [1]", "result": 4.9, "unit": "%"}, {"measurement": "inhibition at 0.1 µM", "setting": "PLK1; [2]", "result": 0.247, "unit": "%"}, {"measurement": "inhibition at 0.1 µM", "setting": "PCTAIRE2", "result": 20.4, "unit": "%"}, {"measurement": "inhibition at 0.1 µM", "setting": "PYK2", "result": 21.6, "unit": "%"}, {"measurement": "Inhibition vs DMSO", "setting": "LOK; Lys1", "result": 56.8, "unit": "%"}, {"measurement": "Inhibition vs DMSO", "setting": "LOK; Lys2", "result": 82.8, "unit": "%"}, {"measurement": "inhibition at 0.1 µM", "setting": "MAP3K3", "result": 13, "unit": "%"}, {"measurement": "inhibition at 0.1 µM", "setting": "PIK3CB", "result": -0.9, "unit": "%"}]}
